Experimental data published in PubChem BioAssay (NCI).
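Growth conditions: 96-well plates. Treatment: test compound, 48 hours, 5 concentrations. Analysis: linear interpolation between bracketing concentrations; unreached endpoints set to highest concentration. Abbreviation: GI50, concentration required for 50% inhibition of growth. Definition used: TGI = concentration required for complete inhibition of growth.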 Where a SMILES comes first, the peptide text is derived from it. The star is where a group is joined. ONb = O=[N+]([O-])c1ccc(CO*)cc1; Boc = CC(C)(C)OC(=O)*

How the values were obtained:
Test in all cases: growth of human tumour cells (NCI), 48 h
DU-145 prostate = test system: DU-145 prostate
SNB-75 CNS = test system: SNB-75 CNS
MDA-N = test system: MDA-N
NCI-H23 lung = test system: NCI-H23 lung
TK-10 renal = test system: TK-10 renal
NCI/ADR-RES ovarian = test system: NCI/ADR-RES ovarian
LOX IMVI melanoma = test system: LOX IMVI melanoma
MCF7 breast = test system: MCF7 breast
OVCAR-3 ovarian = test system: OVCAR-3 ovarian
PC-3 prostate = test system: PC-3 prostate
M14 melanoma = test system: M14 melanoma

Row | Compound | TGI (DU-145 prostate) [µM] | TGI (SNB-75 CNS) [µM] | TGI (MDA-N) [µM] | TGI (NCI-H23 lung) [µM] | TGI (TK-10 renal) [µM] | TGI (NCI/ADR-RES ovarian) [µM] | TGI (LOX IMVI melanoma) [µM] | TGI (MCF7 breast) [µM] | TGI (OVCAR-3 ovarian) [µM] | TGI (PC-3 prostate) [µM] | TGI (M14 melanoma) [µM] | GI50 (DU-145 prostate) [µM] | GI50 (SNB-75 CNS) [µM] | GI50 (NCI-H23 lung) [µM] | GI50 (TK-10 renal) [µM] | GI50 (NCI/ADR-RES ovarian) [µM] | GI50 (LOX IMVI melanoma) [µM] | GI50 (MCF7 breast) [µM] | GI50 (OVCAR-3 ovarian) [µM] | GI50 (PC-3 prostate) [µM]
1 | Nc1[nH]c(=S)nc2snnc12 | > 100 | > 100 | > 100 | > 100 | > 100 | > 100 | > 100 | > 100 | > 100 | > 100 | – | – | – | – | – | – | – | – | – | –
2 | Cc1c2cnccc2c(C)c2c1c1ccccc1n2CCCCCCNCc1ccccc1 | – | 3.9 | – | 3.64 | – | – | 3.81 | 3.22 | 4.01 | – | – | – | – | – | – | – | – | – | – | –
3 | CN1C(=O)[C@@H]2[C@@H]3c4ccccc4N(S(=O)(=O)C(F)(F)F)[C@@H]3c3[nH]c4ccccc4c3[C@@H]2C1=O | > 100 | > 100 | > 100 | > 100 | > 100 | > 100 | > 100 | > 100 | > 100 | > 100 | – | – | – | – | – | – | – | – | – | –
4 | CC(=O)OCC1OC(SC2OC(COC(C)=O)C(OC(C)=O)C(OC(C)=O)C2OC(C)=O)C(OC(C)=O)C(OC(C)=O)C1OC(C)=O (stereo not given) | > 100 | > 100 | > 100 | > 100 | > 100 | > 100 | > 100 | > 100 | > 100 | – | – | – | – | – | – | – | – | – | – | –
5 | CNC(=O)N(C)COC | – | > 100 | – | – | – | – | > 100 | – | > 100 | – | > 100 | – | – | – | – | – | – | – | – | –
6 | Cc1ccc(-n2[nH]nc(C#N)c2=O)cc1 | > 100 | > 100 | > 100 | > 100 | > 100 | > 100 | – | > 100 | > 100 | > 100 | > 100 | – | – | – | – | – | – | – | – | –
7 | CCCCNC(=S)Nc1nc(C(=O)NNC(=S)NC2CCCCC2)cs1 | > 100 | – | > 100 | > 100 | > 100 | > 100 | > 100 | > 100 | > 100 | > 100 | > 100 | – | – | – | – | – | – | – | – | –
8 | O=C1/C(=C/c2ccc(Cl)cc2)N=C(c2ccccc2)N1CCc1cccs1 | > 100 | > 100 | – | > 100 | > 100 | > 100 | > 100 | > 100 | > 100 | > 100 | – | 42.7 | 50.9 | 20 | 27.9 | 23.7 | 8.52 | 18.4 | 16.7 | 13
9 | O=S(=O)(O)ON=C1c2ccccc2-c2ccccc21 | > 100 | > 100 | – | > 100 | > 100 | > 100 | > 100 | > 100 | > 100 | > 100 | > 100 | – | – | – | – | – | – | – | – | –
10 | CC(C)CC(NC(=O)OC(C)(C)C)C(=O)NC(CCC(=O)OCc1ccc([N+](=O)[O-])cc1)C(=O)OCc1ccc([N+](=O)[O-])cc1 (stereo not drawn) (Boc-Leu-Glu(ONb)-ONb; configuration not given here) | 44.9 | 31.9 | > 100 | 59.4 | > 100 | > 100 | 63.8 | – | 77.4 | > 100 | 57.8 | – | – | – | – | – | – | – | – | –
11 | N#CCCN(CCC#N)c1ccc(/C=C2\N=C(c3ccccc3)N(NC(N)=S)C2=O)cc1 | > 100 | – | > 100 | – | > 100 | > 100 | > 100 | > 100 | > 100 | > 100 | > 100 | – | – | – | – | – | – | – | – | –
